Measurements taken from US20250051338A1, “TYK2 DEGRADERS AND USES THEREOF” (Kymera Therapeutics, Inc., priority 2021, published 2025).

How the values were obtained:
Type in all cases: cell-based
TYK2 [1] = biological target: T1, TYK2 (Homo sapiens, UniProt P29597); test: TYK2 degradation MSD assay in OCI-LY10 cells; parameters: endogenous in cells; host or cells: EBV-B cells; conditions: 4 to 24 hours incubation, read-out: TYK2 MSD DC50 rating in OCI-LY10
Procedure: (§1) Example 3. TYK2 Degradation MSD Assay in EBV-B, OCI-LY10, and Human PBMC Cells
(§2) Degradation of TYK2 in cells was quantitatively measured using Meso Scale Discovery (MSD) technology. EBV-B, OCI-LY10 or human PBMC cells were seeded in 96-well plates with a density of 0.4 million cells per well in 100 μl fresh media. Compounds were then added to the assay plates with a final top concentration of 1 to 10 μM in a 1:3 dilution series with total of 9 doses. The assay plates were then incubated for 4 to 24 hours at 37° C. under 5% CO2. The assay plates were then centrifuged for 5 minutes, and the cell pellets were treated with 100 μl/well RIPA lysis buffer (Boston Bioproducts, BP-115D) with protease and phosphatase inhibitors (Roche, 05892791001 and 04906837001). To prepare MSD assay plates (MSD, L15XA), the plates were coated with the capture antibody (Santa Cruz Biotechnology, SC-5271) in PBS, at 40 μl/well. The plates were then incubated overnight at 4° C., washed 3 times with 150 μl/well TBST buffer (Cell Signaling Technology, 9997S) and blocked with 150 μl/well blocking buffer (MSD, R93BA-4). Cell lysates were then added to MSD assay plates and the plates were incubated at room temperature for 1 hour. The plates were then washed 3 times with 150 μl/well TBST buffer and 25 μl/well primary detection antibody (Cell Signaling Technology, #9312). The assay plates were then incubated at room temperature for 1 hour, washed 3 times with 150 μl/well TBST buffer, and 25 μl/well secondary detection antibody, SULFO-TAG anti-rabbit antibody (MSD, R32AB-1) were added. The assay plates were then incubated at room temperature for 1 hour, washed 3 times with 150 μl/well TBST buffer, and 150 μl/well MSD reading buffer (MSD, R92TC-2) were added. The plates were then analyzed by an MSD reader. The data was analyzed by GraphPad Prism and the dose dependent TYK2 degradation was fit using the four-parameter inhibitor vs. response nonlinear regression. The DC50 data were measured and categorized into different levels in Table H. The compound with DC50 less than or equal to 1 nM is marked as A, with DC50 more than 1 nM and less than or equal to 10 nM is marked as B, with DC50 more than 10 nM and less than or equal to 100 nM is marked as C, and with DC50 more than 100 nM or not available is marked as D.

TYK2 [2] = biological target: T1, TYK2; test: TYK2 degradation MSD assay in human PBMC cells; parameters: endogenous in cells; host or cells: human PBMC; conditions: 4 to 24 hours incubation, read-out: TYK2 MSD DC50 rating in human PBMC
Procedure: as §1, §2

TYK2 [3] = biological target: T1, TYK2; test: TYK2 degradation MSD assay in EBV-B cells; parameters: endogenous in cells; host or cells: EBV-B cells; conditions: 4 to 24 hours incubation, read-out: TYK2 MSD DC50 rating in EBV-B
Procedure: as §1, §2

T1 sequence (P29597 whole entry): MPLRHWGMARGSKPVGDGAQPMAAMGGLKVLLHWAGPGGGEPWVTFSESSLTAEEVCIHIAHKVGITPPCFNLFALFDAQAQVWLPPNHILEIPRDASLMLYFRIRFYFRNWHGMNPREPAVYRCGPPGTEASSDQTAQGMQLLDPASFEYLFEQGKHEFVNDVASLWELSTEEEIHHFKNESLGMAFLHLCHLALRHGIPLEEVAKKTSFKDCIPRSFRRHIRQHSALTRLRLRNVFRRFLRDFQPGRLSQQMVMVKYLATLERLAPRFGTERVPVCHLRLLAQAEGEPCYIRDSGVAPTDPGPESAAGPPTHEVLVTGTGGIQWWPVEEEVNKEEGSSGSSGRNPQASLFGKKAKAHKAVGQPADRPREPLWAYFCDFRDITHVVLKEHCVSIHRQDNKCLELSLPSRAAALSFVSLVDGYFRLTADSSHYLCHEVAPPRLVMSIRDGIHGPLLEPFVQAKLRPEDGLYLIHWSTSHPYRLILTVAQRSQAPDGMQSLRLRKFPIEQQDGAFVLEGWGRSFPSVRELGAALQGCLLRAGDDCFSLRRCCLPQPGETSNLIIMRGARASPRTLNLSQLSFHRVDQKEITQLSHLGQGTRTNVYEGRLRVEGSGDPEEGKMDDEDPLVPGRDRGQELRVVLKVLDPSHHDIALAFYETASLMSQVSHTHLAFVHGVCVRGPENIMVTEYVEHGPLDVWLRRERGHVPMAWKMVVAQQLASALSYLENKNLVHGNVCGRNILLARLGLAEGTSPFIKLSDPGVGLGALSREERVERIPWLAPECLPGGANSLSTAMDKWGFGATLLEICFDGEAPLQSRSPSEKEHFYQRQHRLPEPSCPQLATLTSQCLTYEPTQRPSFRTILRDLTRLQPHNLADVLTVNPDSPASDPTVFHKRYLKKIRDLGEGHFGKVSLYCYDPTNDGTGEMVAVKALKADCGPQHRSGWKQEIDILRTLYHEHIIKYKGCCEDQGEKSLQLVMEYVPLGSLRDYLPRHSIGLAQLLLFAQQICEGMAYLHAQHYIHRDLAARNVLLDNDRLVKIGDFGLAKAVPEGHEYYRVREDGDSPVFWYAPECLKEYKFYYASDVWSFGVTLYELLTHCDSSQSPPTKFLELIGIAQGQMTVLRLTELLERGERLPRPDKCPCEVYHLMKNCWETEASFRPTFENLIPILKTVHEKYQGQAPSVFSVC

Structure (SMILES)	DC50 (TYK2 [1])	DC50 (TYK2 [2])	DC50 (TYK2 [3])
CNc1cc(Nc2cccc(CN3CCC4(CC3)CCN(c3ccc5c(c3)[nH]c(=O)n5C3CCC(=O)NC3=O)C4)c2)nn2c(C(=O)NC3CC3)cnc12 (stereo not drawn) [Example K601]	> 0.1 µM	> 0.1 µM	> 0.1 µM
CNc1cc(Nc2cccc(CN3CCC(CN(C)c4ccc5c(c4)n(C)c(=O)n5C4CCC(=O)NC4=O)CC3)c2)nn2c(C(=O)NC3CC3)cnc12 (stereo not drawn) [Example K606]	> 0.1 µM	> 0.1 µM	> 0.1 µM
Cn1c(=O)n(C2CCC(=O)NC2=O)c2ccc(CCCCCCCCNc3cc(Nc4cccn(-c5ccccn5)c4=O)nn4c(C(=O)N[C@@H]5C[C@@H]5F)cnc34)cc21 (stereo partly drawn) [Example K208]	> 0.1 µM	> 0.1 µM	> 0.1 µM
CCNC(=O)c1cnc(Nc2cc(C(=O)NCCCCc3cccc4c3n(C)c(=O)n4C3CCC(=O)NC3=O)ccn2)cc1Nc1cccc(-c2ncc(F)cn2)c1OC (stereo not drawn) [Example K181]	> 0.1 µM	0.001 to 0.01 µM	> 0.1 µM
CNc1cc(Nc2cccc(C(=O)NCCCCCCCCc3cccc4c3n(C)c(=O)n4C3CCC(=O)NC3=O)c2)nn2c(C(=O)N[C@@H]3C[C@@H]3F)cnc12 (stereo partly drawn) [Example K254]	> 0.1 µM	0.001 to 0.01 µM	> 0.1 µM
CNc1cc(Nc2cnn(CC3CCN(CC4CCN(c5ccc6c(c5)n(C)c(=O)n6C5CCC(=O)NC5=O)CC4)CC3)c2)nn2c(C(=O)N[C@@H]3C[C@@H]3F)cnc12 (mixture of isomers) [Example K548]	> 0.1 µM	> 0.1 µM	> 0.1 µM
Cn1c(=O)n(C2CCC(=O)NC2=O)c2ccc(CCCCNc3cc(Nc4cccn(-c5ccccn5)c4=O)nn4c(C(=O)N[C@@H]5C[C@@H]5F)cnc34)cc21 (stereo partly drawn) [Example K204]	> 0.1 µM	> 0.1 µM	> 0.1 µM
CNc1cc(N2CCN(c3ccc(CN4CCN(c5ccc(-c6ccc7c(c6)n(C)c(=O)n7C6CCC(=O)NC6=O)cc5)CC4)cc3)CC2)nn2c(C(=O)N[C@@H]3C[C@@H]3F)cnc12 (stereo partly drawn) [Example K620]	> 0.1 µM	> 0.1 µM	> 0.1 µM
CC#Cc1nn(-c2cccc(F)c2OC)c2cc(Nc3ccc(CN(C)C4CCN(c5cccc6c5n(C)c(=O)n6C5CCC(=O)NC5=O)CC4)cn3)ncc12 (stereo not drawn) [Example K558]	> 0.1 µM	> 0.1 µM	> 0.1 µM
CNC(=O)c1cnc(Nc2ccc(CN3CC(N(C)c4ccc5c(c4)n(C)c(=O)n5C4CCC(=O)NC4=O)C3)cn2)cc1Nc1cccc(-c2ncc(F)cn2)c1OC (stereo not drawn) [Example K163]	> 0.1 µM	> 0.1 µM	> 0.1 µM
CNc1cc(Nc2cccn(-c3ccc(C(=O)N4CCC(CC#Cc5cccc6c5n(C)c(=O)n6C5CCC(=O)NC5=O)CC4)cn3)c2=O)nn2c(C(=O)N[C@@H]3C[C@@H]3F)cnc12 (stereo partly drawn) [Example K331]	> 0.1 µM	< 0.001 µM	> 0.1 µM
CNc1cc(Nc2cccc(C(=O)NCCCCc3cccc4c3n(C)c(=O)n4C3CCC(=O)NC3=O)c2)nn2c(C(=O)N[C@@H]3C[C@@H]3F)cnc12 (stereo partly drawn) [Example K248]	> 0.1 µM	> 0.1 µM	> 0.1 µM
CNC(=O)c1cnc(Nc2ccc(CN(C)C3CCCN(c4ccc5c(c4)n(C)c(=O)n5C4CCC(=O)NC4=O)C3)cn2)cc1Nc1cccc(-c2ncc(F)cn2)c1OC (stereo not drawn) [Example K160]	> 0.1 µM	> 0.1 µM	< 0.001 µM
CNc1cc(Nc2cccn(-c3ccc(C(=O)N4CCN([C@H]5CC[C@@H](c6ccc(-c7ccc8c(c7)n(C)c(=O)n8C7CCC(=O)NC7=O)cc6)CC5)CC4)cn3)c2=O)nn2c(C(=O)N[C@@H]3C[C@@H]3F)cnc12 (stereo partly drawn) [Example K377]	> 0.1 µM	> 0.1 µM	< 0.001 µM
CNc1cc(Oc2cnn(C3CCN(CC4CCN(c5ccc(-c6ccc7c(c6)n(C)c(=O)n7C6CCC(=O)NC6=O)cc5)CC4)CC3)c2)nn2c(C(=O)N[C@@H]3C[C@@H]3F)cnc12 (mixture of isomers) [Example K547]	> 0.1 µM	> 0.1 µM	> 0.1 µM

Other lines, results leading:

DC50 (TYK2 [1])	DC50 (TYK2 [2])	DC50 (TYK2 [3])	Structure (SMILES)
0.001 to 0.01 µM	> 0.1 µM	> 0.1 µM	CNc1cc(Nc2cccc(-c3ccc(CN4CCN(C5CCC(c6ccc(-c7ccc8c(c7)n(C)c(=O)n8C7CCC(=O)NC7=O)cc6)CC5)CC4)cn3)c2)nn2c(C(=O)N[C@@H]3C[C@@H]3F)cnc12 (stereo partly drawn) [Example K463]
> 0.1 µM	< 0.001 µM	0.001 to 0.01 µM	CNc1cc(Nc2cccn(-c3ccc(C(=O)NCCCCCCCCCCc4ccc5c(c4)n(C)c(=O)n5C4CCC(=O)NC4=O)cn3)c2=O)nn2c(C(=O)N[C@@H]3C[C@@H]3F)cnc12 (stereo partly drawn) [Example K261]
0.001 to 0.01 µM	> 0.1 µM	> 0.1 µM	CNc1cc(Nc2cccn(-c3ccc(C(=O)N4CCC(N5CCC(N6CCN(c7cccc8c7n(C)c(=O)n8C7CCC(=O)NC7=O)CC6)CC5)CC4)cn3)c2=O)nn2c(C(=O)N[C@@H]3C[C@@H]3F)cnc12 (stereo partly drawn) [Example K462]
< 0.001 µM	> 0.1 µM	> 0.1 µM	CNc1cc(Nc2cccc(-c3ccc(CN4CCC(N5CCN(c6ccc7c(c6)n(C)c(=O)n7C6CCC(=O)NC6=O)CC5)C(F)(F)C4)cn3)c2OC)nn2c(C(=O)NC3CC3F)cnc12 (stereo not drawn) [Example K660]
0.01 to 0.1 µM	> 0.1 µM	> 0.1 µM	CNc1cc(-c2ccc(-c3ccc(CN4CCN(c5ccc(-c6ccc7c(c6)n(C)c(=O)n7C6CCC(=O)NC6=O)cc5)CC4)cc3)c3nccn23)nn2c(C(=O)N[C@@H]3C[C@@H]3C)cnc12 (stereo partly drawn) [Example K492]
< 0.001 µM	> 0.1 µM	> 0.1 µM	CNc1cc(Nc2cccn(-c3ccc(C(=O)N4CCC(N(C)CC5CCN(c6ccc(-c7ccc8c(c7)n(C)c(=O)n8C7CCC(=O)NC7=O)cc6)C5)CC4)cn3)c2=O)nn2c(C(=O)N[C@@H]3C[C@@H]3F)cnc12 (stereo partly drawn) [Example K446]
< 0.001 µM	> 0.1 µM	< 0.001 µM	CNc1cc(Nc2cccn(-c3ccc(C(=O)N4CCC(N5CC(N6CCN(c7ccc8c(c7)n(C)c(=O)n8C7CCC(=O)NC7=O)CC6)C5)CC4)cn3)c2=O)nn2c(C(=O)N[C@@H]3C[C@@H]3F)cnc12 (stereo partly drawn) [Example K381]
< 0.001 µM	> 0.1 µM	> 0.1 µM	CNc1cc(Nc2cccc(-c3ccc(CN4CCC(C#Cc5ccc6c(c5)n(C)c(=O)n6C5CCC(=O)NC5=O)CC4)cn3)c2)nn2c(C(=O)N[C@@H]3C[C@@H]3F)cnc12 (stereo partly drawn) [Example K436]
0.01 to 0.1 µM	> 0.1 µM	> 0.1 µM	CNc1cc(N2CCCc3c(-c4ccc(CC5CCC(c6ccc(-c7ccc8c(c7)n(C)c(=O)n8C7CCC(=O)NC7=O)cc6)CC5)cn4)cccc32)nn2c(C(=O)N[C@@H]3C[C@@H]3F)cnc12 (stereo partly drawn) [Example K501]
0.001 to 0.01 µM	> 0.1 µM	> 0.1 µM	CNc1cc(Nc2cccc(N3CCC(CN4CCC(C#Cc5cccc6c5n(C)c(=O)n6C5CCC(=O)NC5=O)CC4)CC3)c2)nn2c(C(=O)N[C@@H]3C[C@@H]3F)cnc12 (stereo partly drawn) [Example K465]
0.01 to 0.1 µM	> 0.1 µM	> 0.1 µM	CNc1cc(N2CCc3c(-c4ccc(CN5CCN(c6ccc(-c7cccc8c7n(C)c(=O)n8C7CCC(=O)NC7=O)cc6)CC5)cn4)cccc32)nn2c(C(=O)N[C@@H]3C[C@@H]3F)cnc12 (stereo partly drawn) [Example K494]
< 0.001 µM	> 0.1 µM	> 0.1 µM	CNc1cc(Nc2cccc(CN3CCC(N4CC(N5CCN(c6ccc7c(c6)n(C)c(=O)n7C6CCC(=O)NC6=O)CC5)C4)CC3)c2)nn2c(C(=O)NC3CC3)cnc12 (stereo not drawn) [Example K589]
0.001 to 0.01 µM	> 0.1 µM	> 0.1 µM	CNc1cc(Nc2cccc(-c3ccc(CNCc4ccc(N5CCC(N6CCC(c7ccc8c(c7)n(C)c(=O)n8C7CCC(=O)NC7=O)C6)CC5)cc4)cn3)c2)nn2c(C(=O)N[C@@H]3C[C@@H]3F)cnc12 (stereo partly drawn) [Example K461]
0.001 to 0.01 µM	> 0.1 µM	> 0.1 µM	CNc1cc(Nc2cccn(-c3ccc(C(=O)N4CCC(OCC#Cc5cccc6c5n(C)c(=O)n6C5CCC(=O)NC5=O)CC4)cn3)c2=O)nn2c(C(=O)N[C@@H]3C[C@@H]3F)cnc12 (stereo partly drawn) [Example K421]
